# Where two headings read alike, the source gives them in different places. Marks after values point to notes of the source that are not given here.
# Legend:
# [1] = tested on: isolated rat liver mitochondria; experiment: Mitochondrial toxicity, any endpoint, intact mitochondria and submitochondrial particles; format: biochemical; conditions: for lowest concentration causing significant mitochondrial toxicity: any endpoint
# Procedure: Rats were anesthetized by an intraperitoneal injection of Nembutal and the liver perfused with PBS to remove the blood. The liver was then cut into small pieces and homogenized using a Dounce type homogenizer in the ice-cold isolation buffer (IB) containing 200 mM sucrose, 10 mM Tris-MOPS, 1 mM EGTA (pH 7.4). The sample was then centrifuged at 600g for 10 min. The supernatant was further centrifuged at 7500g for 10 min, and the pellets was washed once with the IB and centrifuged again at 7500g for 10 min to collect mitochondria. […] Before drug treatment, the protein concentration was adjusted to 1 mg/ml using appropriate buffer. […] Briefly, mitochondrial and cytosolic fractions from four different preparations using four rats were diluted using the Laemmli protein loading buffer and subject to SDS-PAGE with 4–20% gradient gels. The proteins were blotted to PVDF membranes and detected using antibodies against GAPDH, ATP5A, UQCRC2, SDHB, and NDUFB8.
# The aliquoted stock solutions were kept for less than one month and each tube was used only once. The KIs were added to the mitochondria at 1:1000 dilutions. […] The Cmax data were from clinical trials which used FDA recommend dosages, route of administration, and duration. […] The final concentration of DMSO for drug treatment was always 0.1%, and control treatments were 0.1% DMSO.
# [2] = tested on: isolated rat liver mitochondria; conditions: for lowest concentration causing cytochrome c release: rat, 30 min, pH 7.4
# [3] = tested on: isolated rat liver mitochondria; experiment: Mitochondrial ROS production (CM-H2DCFDA)
# [4] = cited from earlier work
# [5] = cited from earlier work; remark: listed apart in the source
# [6] = tested on: isolated rat liver mitochondria; experiment: Mitochondrial oxygen consumption (glutamate/malate or succinate driven, state 4 and state 3); format: biochemical; conditions: for Glutamate/malate driven respiration State 3 / Glutamate/malate driven respiration State 4 / Succinate-driven respiration State 3 / Succinate-driven respiration State 4: oxygen consumption, DMSO-treated = 1; for State 3 respiration driven by succinate at 10XCmax: key: 0 indicates that the drug had no effects (negative); for State 3 respiration driven by succinate at 1XCmax: key: 0 indicates that the drug had no effects (negative)
# Summary of the method: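 Oxygen uptake on glutamate/malate or on succinate defined state 4; ADP added 3 min later gave state 3. Mitochondria isolated from rat liver by differential centrifugation, adjusted to 1 mg/ml and pretreated 5 min with inhibitor (0.1% DMSO final). Values relative to DMSO control, set to 1.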
# [7] = tested on: RCC I; experiment: RCC I activity in submitochondrial particles; format: biochemical, rat; set-up: key to RCC I at 10XCmax / RCC I at 100XCmax / RCC I at 50XCmax / RCC I at 30XCmax / RCC I at 20XCmax: activity relative to DMSO-treated controls (control set as 1 = 100%)
# Summary of the method: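 First, submitochondrial particles (1 mg/ml) are incubated with inhibitor for 15 min. Next, complex activities are followed spectrophotometrically, with RCC I taken as the difference between buffers lacking and containing rotenone. Finally, activities are expressed relative to DMSO controls set at 1.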
# [8] = tested on: RCC V; experiment: RCC V activity in submitochondrial particles; format: biochemical, rat; conditions: 5XCmax; DMSO treated samples set as 1; note: key: 0 indicates that the drug had no effects (negative)
# Summary of the method: (§1)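 Abs 340 nm (I/V) or 600 nm (II), 1-min reads × 6 min; 550 nm (III, IV), 10-s reads × 2 min. RCC I = rotenone-free minus rotenone rate. DMSO control = 1.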
# [9] = target: T1, RCC II (Rattus norvegicus, UniProt P21913+Q641Z9+Q6PCT8+Q920L2); experiment: RCC II activity in submitochondrial particles; format: biochemical; set-up: key: activity relative to DMSO-treated controls (control set as 1 = 100%); conditions: DMSO treated samples set as 1
# T1 construct: Submitochondrial particles were prepared by subjecting the intact mitochondria to three successive freeze–thaw cycles; from tissue; host or cells: rat liver mitochondria, used as submitochondrial particles
# Summary of the method: as §1
# [10] = tested on: isolated rat liver mitochondria; experiment: Mitochondrial swelling (absorbance at 535 nm); format: biochemical; conditions: difference in signal between KI and DMSO treated samples at the end of experiments; for Swelling 5XCmax: key: 0 indicates that the drug had no effects (negative)
# [11] = ref product labeling; cited from earlier work
# [12] = tested on: isolated rat liver mitochondria; experiment: Mitochondrial inner membrane potential (MMP), Rhodamine 123; format: biochemical; conditions: difference in signal between KI and DMSO treated samples at the end of experiments
# From the text: Fig. 3 KI effects on mitochondrial inner membrane potential (MMP). […] In a, c, data are means and standard derivations from three separate experiments. *p < 0.05 as compared to DMSO-treated samples at the end of experiments. In b, data are means of two independent experiments
# [13] = human therapeutic Cmax at FDA recommended dosages, ref product labeling and drug approval packages at the official FDA website
# [14] = 10XCmax, DMSO treated samples set as 1
# [15] = 1XCmax, DMSO treated samples set as 1
# [16] = 2.5XCmax, DMSO treated samples set as 1
# [17] = 5XCmax, DMSO treated samples set as 1
# [18] = 20XCmax, DMSO treated samples set as 1
# [19] = 30XCmax, DMSO treated samples set as 1
# T1 sequence (Q920L2 35-656): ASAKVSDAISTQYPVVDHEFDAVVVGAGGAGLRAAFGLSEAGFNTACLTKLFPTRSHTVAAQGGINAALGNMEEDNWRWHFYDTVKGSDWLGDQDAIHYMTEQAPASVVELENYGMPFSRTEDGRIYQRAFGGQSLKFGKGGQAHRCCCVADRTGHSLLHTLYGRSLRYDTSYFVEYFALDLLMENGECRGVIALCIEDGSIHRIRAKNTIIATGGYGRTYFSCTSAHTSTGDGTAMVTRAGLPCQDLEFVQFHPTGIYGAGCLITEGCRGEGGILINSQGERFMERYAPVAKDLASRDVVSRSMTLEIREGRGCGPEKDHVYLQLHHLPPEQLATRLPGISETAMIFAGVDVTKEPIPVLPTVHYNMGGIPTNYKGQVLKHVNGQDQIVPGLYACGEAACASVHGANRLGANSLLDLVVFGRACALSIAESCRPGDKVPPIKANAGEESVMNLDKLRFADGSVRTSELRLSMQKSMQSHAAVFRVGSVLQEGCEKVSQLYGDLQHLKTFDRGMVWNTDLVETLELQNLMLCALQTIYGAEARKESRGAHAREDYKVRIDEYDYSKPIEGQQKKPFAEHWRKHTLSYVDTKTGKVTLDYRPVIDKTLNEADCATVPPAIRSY
# T1 sequence (P21913 31-282): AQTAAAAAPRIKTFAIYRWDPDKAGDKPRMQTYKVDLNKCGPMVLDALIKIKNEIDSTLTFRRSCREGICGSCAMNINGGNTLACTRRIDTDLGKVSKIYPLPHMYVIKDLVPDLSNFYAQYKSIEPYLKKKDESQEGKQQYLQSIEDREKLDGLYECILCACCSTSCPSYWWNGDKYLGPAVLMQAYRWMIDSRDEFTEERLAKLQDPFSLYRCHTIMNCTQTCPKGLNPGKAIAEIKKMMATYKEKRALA
# T1 sequence (Q641Z9 1-169): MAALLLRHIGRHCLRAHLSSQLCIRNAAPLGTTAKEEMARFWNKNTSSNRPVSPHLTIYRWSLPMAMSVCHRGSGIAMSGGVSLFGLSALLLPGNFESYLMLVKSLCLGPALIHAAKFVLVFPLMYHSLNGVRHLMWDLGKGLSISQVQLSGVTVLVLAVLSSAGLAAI
# T1 sequence (Q6PCT8 57-159): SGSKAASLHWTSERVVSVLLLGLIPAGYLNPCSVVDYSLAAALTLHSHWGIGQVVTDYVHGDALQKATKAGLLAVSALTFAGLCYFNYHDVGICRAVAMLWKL
compound,measurement,setting,value
C=CC(=O)Nc1cc(Nc2nccc(-c3cn(C)c4ccccc34)n2)c(OC)cc1N(C)CCN(C)C [Osimertinib],lowest concentration causing significant mitochondrial toxicity,[1],30 fold Cmax
same,lowest concentration causing cytochrome c release,[2],100 fold Cmax
same,lowest concentration triggering ROS overproduction,[3],30 fold Cmax
same,Cmax,[4]; [13],0.5 µM
N#CC[C@H](C1CCCC1)n1cc(-c2ncnc3[nH]ccc23)cn1 [Ruxolitinib],DILI potential (based on labeling),[5]; ref FDA product labeling,0
same,lowest concentration causing significant mitochondrial toxicity,[1],20 fold Cmax
same,Glutamate/malate driven respiration State 3,[6]; 20-fold Cmax,0.62 ± 0.05
same,Glutamate/malate driven respiration State 4,[6]; 20-fold Cmax,0.81 ± 0.05
same,Succinate-driven respiration State 3,[6]; 20-fold Cmax,0.90 ± 0.13
same,Succinate-driven respiration State 4,[6]; 20-fold Cmax,1.00 ± 0.14
same,Glutamate/malate driven respiration State 3,[6]; 30-fold Cmax,0.54 ± 0.02
same,Glutamate/malate driven respiration State 4,[6]; 30-fold Cmax,1.00 ± 0.09
same,Succinate-driven respiration State 3,[6]; 30-fold Cmax,1.05 ± 0.11
same,Succinate-driven respiration State 4,[6]; 30-fold Cmax,1.08 ± 0.09
same,Glutamate/malate driven respiration State 3,[6]; 50-fold Cmax,0.49 ± 0.06
same,Glutamate/malate driven respiration State 4,[6]; 50-fold Cmax,0.97 ± 0.20
same,Succinate-driven respiration State 3,[6]; 50-fold Cmax,0.87 ± 0.08
same,Succinate-driven respiration State 4,[6]; 50-fold Cmax,1.07 ± 0.07
same,Glutamate/malate driven respiration State 3,[6]; 100-fold Cmax,0.28 ± 0.06
same,Glutamate/malate driven respiration State 4,[6]; 100-fold Cmax,0.71 ± 0.08
same,Succinate-driven respiration State 3,[6]; 100-fold Cmax,0.99 ± 0.03
same,Succinate-driven respiration State 4,[6]; 100-fold Cmax,1.17 ± 0.12
same,lowest concentration significantly affecting mitochondrial oxygen consumption,[6]; tested at 1 to 100-fold Cmax,20 fold Cmax
same,lowest concentration causing cytochrome c release,[2],50 fold Cmax
same,Cmax,[4]; [13],1.2 µM
CCN(CC)CCNC(=O)c1c(C)[nH]c(/C=C2\C(=O)Nc3ccc(F)cc32)c1C [Sunitinib],labeling for DILI,"[5]; W&P warnings and precautions, BBW black box warnings, ref FDA product labeling",BBW: fatal DILI
same,DILI potential (based on labeling),[5]; ref FDA product labeling,1
same,effects on intact mitochondria or submitochondrial particles,[1]; highest concentrations tested,no effects
same,Cmax,[4]; [13],0.12 µM
same,Cmax,[4]; ref Porceddu et al. [2012],70.8 µM
COc1cc2nccc(Oc3ccc(NC(=O)C4(C(=O)Nc5ccc(F)cc5)CC4)cc3)c2cc1OC [cabozantinib malate],RCC I at 10XCmax,[7]; [14],0
same,RCC I at 30XCmax,"[7]; 30XCmax, DMSO-treated = 100",80.97±2.99
same,DILI potential (based on labeling),"[5]; 1 DILI positive, 0 negative according to labeling, ref product labeling",0
same,RCC V at 5XCmax,[8],0
same,State 3 respiration driven by succinate at 1XCmax,[6]; [15],0
same,State 4 respiration driven by succinate at 1XCmax,[6]; [15],0
same,State 3 respiration driven by succinate at 2.5XCmax,[6]; [16],0
same,State 4 respiration driven by succinate at 2.5XCmax,[6]; [16],0
same,State 3 respiration driven by succinate at 5XCmax,[6]; [17],0
same,State 4 respiration driven by succinate at 5XCmax,[6]; [17],0
same,State 3 respiration driven by succinate at 10XCmax,[6]; [14],0
same,State 4 respiration driven by glutamate/malate at 10XCmax,[6]; [14],1.46±0.08
same,State 4 respiration driven by succinate at 10XCmax,[6]; [14],1.23±0.11
same,State 3 respiration driven by succinate at 20XCmax,[6]; [18],0
same,State 4 respiration driven by glutamate/malate at 20XCmax,[6]; [18],1.30±0.15
same,State 4 respiration driven by succinate at 20XCmax,[6]; [18],1.24±0.05
same,State 3 respiration driven by succinate at 30XCmax,[6]; [19],0
same,State 4 respiration driven by glutamate/malate at 30XCmax,[6]; [19],1.55±0.06
same,State 4 respiration driven by succinate at 30XCmax,[6]; [19],1.35±0.18
same,Cytochrome c release 1XCmax,"[2]; 1XCmax, positive control alamethicin treated samples",0
same,Cytochrome c release 2.5XCmax,"[2]; 2.5XCmax, positive control alamethicin treated samples",0
same,Cytochrome c release 5XCmax,"[2]; 5XCmax, positive control alamethicin treated samples",0
same,Cytochrome c release 10XCmax,"[2]; 10XCmax, positive control alamethicin treated samples",0
same,Cytochrome c release 20XCmax,"[2]; 20XCmax, positive control alamethicin treated samples",0
same,Cytochrome c release 30XCmax,"[2]; 30XCmax, positive control alamethicin treated samples",0
same,RCC II at 1.0XCmax,[9]; 1.0XCmax,0
same,RCC II at 2.5XCmax,[9]; 2.5XCmax,0
same,RCC II at 5XCmax,[9]; 5XCmax,0
same,RCC II at 10XCmax,[9]; 10XCmax,0
same,RCC II at 20XCmax,[9]; 20XCmax,0
same,RCC II at 30XCmax,[9]; 30XCmax,79.26±6.01
same,Swelling 1XCmax,[10]; 1XCmax,0
same,Swelling 2.5XCmax,[10]; 2.5XCmax,0
same,Swelling 5XCmax,[10]; 5XCmax,0
same,Swelling 10XCmax,[10]; 10XCmax,0
same,Swelling 20XCmax,[10]; 20XCmax,0.48±0.01
same,Swelling 30XCmax,[10]; 30XCmax,0.46±0.01
same,Potential for cardiotoxicity (based on labeling),[11],0
same,ROS measured by CM-H2DCFDA at 1XCmax,[3]; [15],0
same,ROS measured by CM-H2DCFDA at 2.5XCmax,[3]; [16],0
same,ROS measured by CM-H2DCFDA at 5XCmax,[3]; [17],0
same,ROS measured by CM-H2DCFDA at 10XCmax,[3]; [14],0
same,ROS measured by CM-H2DCFDA at 20XCmax,[3]; [18],0
same,ROS measured by CM-H2DCFDA at 30XCmax,[3]; [19],0
same,Cmax (ng or µg/ml),"[4]; human therapeutic maximal blood concentration, ref product labeling",1.64 µg/mL
same,Cmax,"[4]; read-out: Cmax at µM, human therapeutic maximal blood concentration, ref product labeling",2.58 µM
same,MMP measured by Rhodamine 123 at 1XCmax,[12]; 1XCmax,0
same,MMP measured by Rhodamine 123 at 2.5XCmax,[12]; 2.5XCmax,0
same,MMP measured by Rhodamine 123 at 5XCmax,[12]; 5XCmax,0
same,MMP measured by Rhodamine 123 at 10XCmax,[12]; 10XCmax,945±179*
same,MMP measured by Rhodamine 123 at 20XCmax,[12]; 20XCmax,1828±818*
same,MMP measured by Rhodamine 123 at 30XCmax,[12]; 30XCmax,2071±803*
CS(=O)(=O)CCNCc1ccc(-c2ccc3ncnc(Nc4ccc(OCc5cccc(F)c5)c(Cl)c4)c3c2)o1 [Lapatinib],labeling for DILI,[5]; in vivo,BBW: fatal DILI
same,DILI potential (based on labeling),[5]; ref FDA product labeling,1
same,mitochondrial injury,[1]; concentrations equal to 100-fold Cmax,mitochondrial injury was induced

# Reference: publication PMC5515969, “Effects of 31 FDA approved small-molecule kinase inhibitors on isolated rat liver mitochondria” (Archives of Toxicology, 2016)
